Series [1] deals with 6-OHDA unilateral lesion model rats. The experiment in a line: Forepaw adjusting steps (FAS), 6-OHDA induced akinesia. Format: in vivo, rat. The settings on record: first study; acute L-DOPA 3 mg/kg with 15 mg/kg benserazide s.c.
Procedure: Animals: 60 Sprague-Dawley male rats (290 g-340 g, bought from SLAC Laboratory Animal Co. Ltd at an age of 8-10 weeks). Rats were housed in groups of n=2/cage. […] Animal housing and testing rooms were maintained under controlled environmental conditions and were within close proximity of each other. Animal housing rooms were on a 12-hour light-dark cycle with lights on at 6:00 AM and maintained at 70° F./21° C. (range: 68-72° F./20-22° C.) with a humidity range of 20-40%. Testing rooms were maintained at 68-72° F. with a humidity range of 20-40%.
Dopamine (DA)-denervating lesions were performed by unilateral injection of 6-OHDA in the median forebrain bundle containing the ascending nigrostraital pathway. Rats were anesthetized with pentobarbital sodium 40 mg/kg (i.p.) and positioned in a stereotactic frame. 6-OHDA was injected at the following coordinates (in mm) relative to bregma and dural surface: Tooth bar: −3.3 mm, AP: −1.8 mm, ML: −2.0 mm, DV: −8.6 mm (18 μg/6 μl 6-OHDA). […]
After recovery from surgery, rats with nearly complete (>90%) lesions were selected by means of an apomorphin-induced rotation test. […] Quantification of the rotational response was accomplished in rats by counting the turns in 30 minutes. […]
Each baseline adjusting step test consisted of two subtests of the day and the mean of the two subtests were calculated as baseline. […]
For series [2], the system named is unilaterally 6-OHDA-lesioned rats. The experiment in a line: L-DOPA induced AIMs and drugs screening test (6-OHDA rat model). It counts as in vivo.
Text: Administration of L-DOPA to unilaterally 6-OHDA-lesioned rats induces abnormal involuntary movements (AIMs). These are axial, limb and oral movements that occur only on the body side that is ipsilateral to the lesion.
Animals: 90 experimentally-naïve, male, Sprague-Dawley rats at body weight of 200 to 250 g from Shanghai SLAC Co. Ltd. arrive at the laboratory at least 1 week prior to behavioural testing. Rats are housed in groups of n=2/cage. […] Animal housing and testing rooms are maintained under controlled environmental conditions and are within close proximity of each other. Animal housing rooms are on a 12-hour light-dark cycle with lights on at 6:00 AM and maintained at 70° F./21° C. (range: 68-72° F./20-22° C.) with a humidity range of 20-40%. Testing rooms are maintained at 68-72° F. with a humidity range of 20-40%.
DA-denervating lesions are performed by unilateral injection of 6-OHDA in the ascending nigrostriatal pathway. Rats were anesthetized with pentobarbital sodium 40 mg/kg (i.p.) and positioned in a stereotactic frame. 6-OHDA is injected into the right ascending DA bundle at the following coordinates (in mm) relative to bregma and dural surface: (1) toothbar position −2.3, A=−4.4, L=1.2, V=7.8, (7.5 ug 6-OHDA), (2) toothbar position+3.4, A=−4.0, L=0.8, V=8.0 mm (6 ug 6-OHDA). The neurotoxin injections are performed at a rate of 1 ul/min, and the injection cannula is left in place for an additional 2-3 min thereafter. Two weeks after surgery rats with nearly complete (>90%) lesions are selected by means of an amphetamine-induced rotation test. The animals are placed in plastic Perspex bowls (30 cm in diameter) and the rotational behavior (360° turns) is recorded by an automated rotometer for 90 min after the i.p. injection of 2.5 mg/kg d-amphetamine sulphate. […] Animals are then allocated into two well-matched sub-groups (according to the amphetamine rotation) and receive daily treatment as described below.
L-DOPA methyl ester (Sigma-Aldrich, Germany) is given at the dose of 6 mg/kg/day, combined with 15 mg/kg/day of benserazide HCl (Sigma-Aldrich, Germany). […]
Another series relates to Parkinson's disease. The settings on record: doses 10-60 mg/day; cited from earlier work.
A further series deals with naïve rats. The series is described as follows: Open field test (Example VI, locomotor activity). It counts as in vivo, rat. The settings on record: FIG. 3; pentobarbital 15 mg/kg i.p., 30 min before test; positive control. The source says:
The present study describes the evaluation of zolmitriptan and buspirone in the 6-OHDA rat model. Using this study, a treatment with combination of compounds according to the present invention can be evaluated for their sedative effects, and/or their effects on the motor performance compared to sedated rats and to rats which only had saline injections.
The open field test was used to determine the effects of drug on locomotor activity. Rats were put in open-field chambers (dimensions 40 cm×40 cm) 30 minutes after dosing. After a 15 minutes habituation, locomotion were recorded and analysed by Enthovision Video Tracking Software (Noldus Information Technology, Netherlands) for 60 minutes. All locomotor activities were done during dark phase and to eliminate olfactory cues, the arena was thoroughly cleaned with 70% v/v ethanol between each test.
(§1) Vehicle: Saline, i.p., 30 min before test, n=10
(§2) Positive control: Pentobarbital 15 mg/kg, i.p. 30 min before test, n=10 […]
Statistical analysis: The total locomotor activity is expressed as total moved distance (cm) and average velocity (cm/s) during 60 minutes. The data were analysed using One-Way ANOVA and the Tukey post-hoc test. The locomotor activity in six time point is expressed as moved distance (cm) and average velocity (cm/s) every 10 minutes. The data were analysed using One-Way ANOVA and the Tukey post-hoc test in each time point.

For another series, the system named is Sprague-Dawley (SD) rats. The experiment in a line: Rotarod test (Example V, sedation/motor performance). It counts as in vivo, rat. The settings on record: FIG. 2; pentobarbital 15 mg/kg i.p., 30 min before test; positive control.
Text: The present study describes the evaluation of zolmitriptan and buspirone in the 6-OHDA rat model in a study using the rotarod test. Using this study, a treatment with combination of compounds according to the present invention can be evaluated for their sedative effects, and/or their effects on the motor performance compared to sedated rats and to rats which only had saline injections.
In brief, the animals (30 SD male rats (180-220 g, bred in house, originally from SLAC Laboratory Animal Co. Ltd) at 9-week of age) were trained twice a day for a 3-day period. […] Each training trial was ended if the animal fell off or grips the device and spun around for two consecutive revolutions. The time that rat stayed on the Rotarod was recorded. The staying duration recorded at last training trail was used as baseline. Rats were grouped according a randomly distribution of baseline.
For the test session on the fourth day, the rats were evaluated on the Rotarod with the same setting as above at 30 min after dosing. The rats were dosed with drugs as described below. Dosing and Rotarod measurement were conducted by two scientists separately. Pentobarbital (15 mg/kg. i.p.) was used a as a positive control.
as §1, §2
The data were analyzed using One-Way ANOVA and the Tukey post-hoc test.

The test system of series [3] is L-DOPA induced dyskinesia. As to conditions: cited from earlier work.
The test system of another series is Huntington's disease. As to conditions: patient suffering from Huntington's disease; cited from earlier work.

Consider 6 compounds from patent publication US10632116B2, “Combinations of serotonin receptor agonists for treatment of movement disorders” (Contera Pharma A/S, priority 2010, dated 2020).

Each structure is given as a SMILES string.

As for `N[C@@H](Cc1ccc(O)c(O)c1)C(=O)O` [L-DOPA, 3,4-dihydroxyphenylalanine], the “6-OHDA induced akinesia (forelimb use)” value in series [1] is given as “alleviated 6-OHDA induced akinesia”. In the case of `O=C1CC2(CCCC2)CC(=O)N1CCCCN1CCN(c2ncccn2)CC1` [buspirone, 8-[4-(4-pyrimidin-2-ylpiperazin-1-yl)butyl]-8-azaspiro[4.5]decane-7,9-dione], the “L-DOPA induced AIM (Total AIMs)” value in series [2] (Example IV, FIG. 1, buspirone alone 1 mg/kg/day i.p.) is “only partly reduced AIM”; in series [2] (Example VII, FIG. 4, buspirone alone 0.5 mg/kg i.p.), “only partly reduced AIM”. Besides, the “effects on Parkinson's disease or dyskinesia” value in the series with Parkinson's disease is on record as “did not have any effects”.

In the case of `CCCC(C)C1(CC)C(=O)NC(=O)NC1=O` (stereo not shown) [pentobarbital], in the series with naïve rats, the “open field test motor performance” value is on record as “significantly reduced motor performance”. Besides, the “rotarod performance (time spent on the accelerating rod)” value in the series with Sprague-Dawley (SD) rats is recorded as “significantly reduced time spend on the rotarod”. In the case of `CN(C)CCc1c[nH]c2ccc(C[C@H]3COC(=O)N3)cc12` [zolmitriptan, (S)-4-([3-[2-(dimethylamino)ethyl]-1H-indol-5-yl]methyl)-1,3-oxazolidin-2-one], the “L-DOPA induced AIM (Total AIMs)” value in series [2] (Example IV, FIG. 1, zolmitriptan alone 10 mg/kg/day) is “did not reduce AIM”. Take `Fc1ccc(-c2cncc(CNC[C@H]3CCc4ccccc4O3)c2)cc1` [sarizotan, 1-[(2R)-3,4-dihydro-2H-chromen-2-yl]-N-([5-(4-fluorophenyl)pyridin-3-yl]-methyl)methanamine]: the LID result in series [3] (phase 2A study and open labeled study) is “reduced LID”. Also, in series [3] (several large phase 2b studies), the “effects compared to placebo” value was “no significant effects”. Turning to `O=C1[C@H]2CCCC[C@H]2C(=O)N1CCCCN1CCN(c2nsc3ccccc23)CC1` [perospirone, (3 aR,7aS)-2-{4-[4-(1,2-benzisothiazol-3-yl)piperazin-1-yl]butyl}hexahydro-1H-isoindole-1,3(2H)-dione], in the series with Huntington's disease, the involuntary movement entry is listed as “could reduce involuntary movement”.
